Molecular target: sortase A (SrtA) (Staphylococcus aureus, UniProt Q2FV99)
Assay: HPLC transpeptidation assay, time-dependent inactivation kinetics
Format: biochemical
Conditions: read-out: KI

Chain of sortase A (SrtA) (Q2FV99 25-206): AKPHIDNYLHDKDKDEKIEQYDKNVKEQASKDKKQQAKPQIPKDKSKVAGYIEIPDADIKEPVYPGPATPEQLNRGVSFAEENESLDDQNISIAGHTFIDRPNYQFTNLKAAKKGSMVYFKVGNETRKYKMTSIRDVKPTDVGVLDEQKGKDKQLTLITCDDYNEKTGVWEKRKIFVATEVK

Compound: OCl [NaOCl]
- KI (inactivation): 11.8 ± 3.1 mM
